What was measured:
NCI-H226 cells = assay: Viability assay in NCI-H226 (Yap-dependent) cells, CyQuant; assay type: cell-based, human; conditions: Homo sapiens, NCI-H226, 96 h
Method in brief: (§1)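 Seeded cells were dosed 24 h later in duplicate (10-point, 1:3 dilutions, top 30 μM final, 0.3% DMSO) and incubated 96 h at 37 °C. Viability was read with CyQUANT DNA dye after 1 h, fluorescence bottom read. NCI-H226 in RPMI 1640 medium; SW620 YAP/TAZ CRISPR knockout in DMEM/F-12 medium.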

SW620 Yap KO cells = assay: Viability assay in SW620 Yap KO (Yap independent) cells, CyQuant; assay type: cell-based; conditions: Homo sapiens, SW-620, 96 h
Method in brief: as §1

YAP-TEAD interaction = assay: SK-HEP-1 reporter assay (8xTEAD responsive elements driving NanoLuc luciferase); assay type: cell-based; conditions: Homo sapiens, SK-HEP1, SK-HEP-1 reporter assay
Method in brief: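 SK-HEP-1 cells stably carrying 8×TEAD-driven NanoLuc treated in duplicate, 10-point dose from 30 μM final, 0.3% DMSO, 24 h at 37° C. Luminescence after NanoGlo lysis/substrate addition; IC50 calculated from dose response.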

[1] = n.d. = value not detectable below threshold given in parentheses, ND = not determinable within the entire range

Row | Compound | IC50 (NCI-H226 cells; class symbols) [nM] | IC50 (SW620 Yap KO cells; [1]) [nM] | IC50 (YAP-TEAD interaction; class symbols) [nM] | IC50 (NCI-H226 cells; n.d. = value not detectable below threshold given in parentheses) [nM] | IC50 (YAP-TEAD interaction; [1]) [nM] | IC50 (SW620 Yap KO cells; class symbols) [nM]
1 | Cc1snc2c1c1cc(C(=O)NCCO)ccc1n2-c1ccc(C(F)(F)F)cc1 [Example C65, N-(2-hydroxyethyl)-3-methyl-8-[4-(trifluoromethyl)phenyl]-8H-[1,2]thiazolo[3,4-b]indole-5-carboxamide] | 1 to 100 | > 3200 | 10 to 100 | – | – | –
2 | Cc1snc2c1c1cc(C(=O)N[C@H](C)CO)ccc1n2-c1ccc(C(F)(F)F)cc1 [Example C66, N-[(2R)-1-hydroxypropan-2-yl]-3-methyl-8-[4-(trifluoromethyl)phenyl]-8H-[1,2]thiazolo[3,4-b]indole-5-carboxamide] | 1 to 100 | > 3200 | 10 to 100 | – | – | –
3 | Cc1snc2c1c1cc(C(=O)N[C@@H](CO)c3ccccn3)ccc1n2-c1ccc(C(F)(F)F)cc1 [Example C67, N-[(1R)-2-hydroxy-1-(pyridin-2-yl)ethyl]-3-methyl-8-[4-(trifluoromethyl)phenyl]-8H-[1,2]thiazolo[3,4-b]indole-5-carboxamide] | 1 to 100 | > 3200 | 10 to 100 | – | – | –
4 | Cc1snc2c1c1cc(C(=O)N[C@@H](C)CO)ccc1n2-c1ccc(C(F)(F)F)cc1 [Example C70, N-[(2S)-1-hydroxypropan-2-yl]-3-methyl-8-[4-(trifluoromethyl)phenyl]-8H-[1,2]thiazolo [3,4-b]indole-5-carboxamide] | 1 to 100 | > 3200 | 10 to 100 | – | – | –
5 | Cn1cc2c3cc(S(=O)(=O)NC4CC4)ccc3n(-c3ccc(C(F)(F)F)cc3)c2n1 [Example C72, N-cyclopropyl-2-methyl-8-[4-(trifluoromethyl)phenyl]-2H,8H-pyrazolo[3,4-b]indole-5-sulfonamide] | – | > 3200 | 1 to 10 | > 3200 | – | –
6 | CC[C@H](CO)NC(=O)c1ccc2c(c1)c1c(C)snc1n2-c1ccc(C(F)(F)F)cc1 [Example C77, N-[(2R)-1-hydroxybutan-2-yl]-3-methyl-8-[4-(trifluoromethyl)phenyl]-8H-[1,2]thiazolo[3,4-b]indole-5-carboxamide] | 1 to 100 | > 3200 | 10 to 100 | – | – | –
7 | Cc1snc2c1c1cc(C(=O)N[C@](C)(CO)c3ccccc3)ccc1n2-c1ccc(C(F)(F)F)cc1 [Example C80, N-[(2S)-1-hydroxy-2-phenylpropan-2-yl]-3-methyl-8-[4-(trifluoromethyl)phenyl]-8H-[1,2]thiazolo[3,4-b]indole-5-carboxamide] | 1 to 100 | > 30000 | 10 to 100 | – | – | –
8 | Cc1snc2c1c1cc(C(=O)N[C@H](c3ccccc3)[C@H](C)O)ccc1n2-c1ccc(C(F)(F)F)cc1 [Example C81, N-[(1R,2S)-2-hydroxy-1-phenylpropyl]-3-methyl-8-[4-(trifluoromethyl)phenyl]-8H-[1,2]thiazolo[3,4-b]indole-5-carboxamide] | 1 to 100 | > 3200 | 10 to 100 | – | – | –
9 | CC[C@@H](CO)NC(=O)c1ccc2c(c1)c1c(C)snc1n2-c1ccc(C(F)(F)F)cc1 [Example C83, N-[(2S)-1-hydroxybutan-2-yl]-3-methyl-8-[4-(trifluoromethyl)phenyl]-8H-[1,2]thiazolo [3,4-b]indole-5-carboxamide] | 1 to 100 | > 30000 | 10 to 100 | – | – | –
10 | Cn1cc2c3cc(S(=O)(=O)NCCCO)ccc3n(-c3ccc(C(F)(F)F)cc3)c2n1 [Example C85, N-(3-hydroxypropyl)-2-methyl-8-[4-(trifluoromethyl)phenyl]-2H,8H-pyrazolo[3,4-b]indole-5-sulfonamide] | 1000 to 10000 | > 30000 | – | – | > 30000 | –
11 | Cn1nc2c3cc(C(=O)N[C@@H](CO)C(F)(F)F)ccc3n(-c3ccc(C(F)(F)F)cc3)c2n1 [Example C86, 2-methyl-N-[(2S)-1,1,1-trifluoro-3-hydroxypropan-2-yl]-4-[4-(trifluoromethyl)phenyl]-2H,4H-[1,2,3]triazolo [4,5-b]indole-7-carboxamide] | 1 to 100 | > 30000 | 10 to 100 | – | – | –
12 | Cc1snc2c1c1cc(C(=O)N[C@H](CO)C(C)C)ccc1n2-c1ccc(C(F)(F)F)cc1 [Example C88, N-[(2S)-1-hydroxy-3-methylbutan-2-yl]-3-methyl-8-[4-(trifluoromethyl)phenyl]-8H-[1,2]thiazolo[3,4-b]indole-5-carboxamide] | 100 to 1000 | > 3200 | 10 to 100 | – | – | –
13 | Cc1snc2c1c1cc(C(=O)NC[C@@H](C)O)ccc1n2-c1ccc(C(F)(F)F)cc1 [Example C90, N-[(2R)-2-hydroxypropyl]-3-methyl-8-[4-(trifluoromethyl)phenyl]-8H-[1,2]thiazolo [3,4-b]indole-5-carboxamide] | 1 to 100 | > 3200 | 10 to 100 | – | – | –
14 | Cc1snc2c1c1cc(C(=O)N[C@@H](CO)C3CCC3)ccc1n2-c1ccc(C(F)(F)F)cc1 [Example C91, N-[(1R)-1-cyclobutyl-2-hydroxyethyl]-3-methyl-8-[4-(trifluoromethyl)phenyl]-8H-[1,2]thiazolo[3,4-b]indole-5-carboxamide] | 1 to 100 | > 3200 | 10 to 100 | – | – | –
15 | Cc1snc2c1c1cc(C(=O)NC[C@H](C)O)ccc1n2-c1ccc(C(F)(F)F)cc1 [Example C94, N-[(2S)-2-hydroxypropyl]-3-methyl-8-[4-(trifluoromethyl)phenyl]-8H-[1,2]thiazolo[3,4-b]indole-5-carboxamide] | 1 to 100 | > 30000 | 10 to 100 | – | – | –
16 | Cc1c2c3cc(C(=O)O)ccc3n(-c3ccc(C(F)(F)F)cc3)c2nn1C [Example C95, 2,3-dimethyl-8-[4-(trifluoromethyl)phenyl]-2H,8H-pyrazolo[3,4-b]indole-5-carboxylic acid] | 1 to 100 | > 30000 | 10 to 100 | – | – | –
17 | CNC(=O)c1ccc2c(c1)c1c(C)n(C)nc1n2-c1ccc(C(F)(F)F)cc1 [Example C96, N,2,3-trimethyl-8-[4-(trifluoromethyl)phenyl]-2H,8H-pyrazolo[3,4-b]indole-5-carboxamide] | 1 to 100 | > 3200 | 10 to 100 | – | – | –
18 | Cc1c2c3cc(C(=O)N[C@H](C)CO)ccc3n(-c3ccc(C(F)(F)F)cc3)c2nn1C [Example C97, N-[(2R)-1-hydroxypropan-2-yl]-2,3-dimethyl-8-[4-(trifluoromethyl)phenyl]-2H,8H-pyrazolo[3,4-b]indole-5-carboxamide] | 1 to 100 | > 30000 | 10 to 100 | – | – | –
19 | Cc1c2c3cc(C(=O)NCc4ccncc4)ccc3n(-c3ccc(C(F)(F)F)cc3)c2nn1C [Example C98, 2,3-dimethyl-N-[(pyridin-4-yl)methyl]-8-[4-(trifluoromethyl)phenyl]-2H,8H-pyrazolo[3,4-b]indole-5-carboxamide] | 1 to 100 | > 3200 | 10 to 100 | – | – | –
20 | Cc1c2c3cc(C(=O)N[C@@H](CO)c4ccccn4)ccc3n(-c3ccc(C(F)(F)F)cc3)c2nn1C [Example C99, N-[(1R)-2-hydroxy-1-(pyridin-2-yl)ethyl]-2,3-dimethyl-8-[4-(trifluoromethyl)phenyl]-2H,8H-pyrazolo[3,4-b]indole-5-carboxamide] | 1 to 100 | – | 10 to 100 | – | – | 10000 to 30000
21 | C[C@H](NC(=O)c1ccc2c(c1)c1cn(C)nc1n2-c1ccc(C(F)(F)F)cc1)c1ccccn1 [Example C105, 2-methyl-N-[(1S)-1-(pyridin-2-yl)ethyl]-8-[4-(trifluoromethyl)phenyl]-2H,8H-pyrazolo[3,4-b]indole-5-carboxamide] | 1 to 100 | > 30000 | 10 to 100 | – | – | –

— patent publication US20240270748A1 (Merck Patent GmbH, priority 2021, published 2024)
